From PubChem BioAssay (NCI)
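Five concentrations, 48 hours, 96-well plates. At the GI50, growth is halved. TGI denotes the concentration required for complete inhibition of growth.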

Assays:
Test in all cases: inhibition of tumour cell growth, NCI panel, 48 h
[1] = test system: A549 NSCLC
[2] = test system: CAKI-1 renal
[3] = test system: COLO 205 colon
[4] = test system: LOX IMVI melanoma
[5] = test system: OVCAR-5 ovarian
[6] = test system: OVCAR-8 ovarian
[7] = test system: SK-MEL-5 melanoma
[8] = test system: SK-OV-3 ovarian
[9] = test system: SNB-75 CNS
[10] = test system: SR leukemia
[11] = test system: UO-31 renal
[12] = test system: A498 renal

CCC(=O)NC(Nc1cccc(F)c1)(C(F)(F)F)C(F)(F)F
TGI [1]: > 100 µM
TGI [2]: 93.9 µM
TGI [3]: > 100 µM
TGI [4]: > 100 µM
TGI [5]: > 100 µM
TGI [6]: > 100 µM
TGI [7]: > 100 µM
TGI [8]: > 100 µM
TGI [9]: > 100 µM
TGI [10]: > 100 µM
TGI [11]: > 100 µM

c1ccc(N=c2nc(N3CCOCC3)ss2)cc1
TGI [12]: 79.5 µM
TGI [1]: > 100 µM
TGI [2]: 34.5 µM
TGI [4]: 30.1 µM
TGI [5]: 52.1 µM
TGI [6]: 28.3 µM
TGI [7]: > 100 µM
TGI [8]: > 100 µM
TGI [9]: 39 µM
TGI [10]: 58.3 µM
TGI [11]: 50.2 µM

Fc1ccc(-c2nn3c(-c4cc(C(F)(F)F)cc(C(F)(F)F)c4)nnc3s2)cc1
GI50 [3]: > 50 µM
TGI [3]: > 50 µM
GI50 [5]: > 50 µM
TGI [5]: > 50 µM
GI50 [6]: 1.77 µM
TGI [6]: > 50 µM
GI50 [7]: 4.42 µM
TGI [7]: > 50 µM
GI50 [8]: 1.38 µM
TGI [8]: 3.9 µM
GI50 [9]: 0.886 µM
TGI [9]: 2.36 µM
GI50 [11]: 1.32 µM
TGI [11]: > 50 µM

CC(=O)O[C@H]1C=CC(=O)C(C)CC1C (stereo partly drawn)
TGI [12]: > 100 µM
TGI [1]: > 100 µM
TGI [2]: > 100 µM
TGI [3]: > 100 µM
TGI [4]: > 100 µM
TGI [5]: > 100 µM
TGI [7]: > 100 µM
TGI [8]: > 100 µM
TGI [9]: > 100 µM
TGI [10]: > 100 µM
TGI [11]: > 100 µM

CCCC(N)C(=O)c1ccccc1 (stereo not drawn)
TGI [12]: > 100 µM
TGI [1]: > 100 µM
TGI [2]: > 100 µM
TGI [3]: > 100 µM
TGI [4]: > 100 µM
TGI [5]: > 100 µM
TGI [6]: > 100 µM
TGI [7]: > 100 µM
TGI [8]: > 100 µM
TGI [9]: > 100 µM
TGI [10]: > 100 µM
TGI [11]: > 100 µM

COC1=CC(=O)c2c(cc(COP(=O)(OCC3OC(n4cc(F)c(=O)[nH]c4=O)CC3O)N(C)CCCCCl)n2C)C1=O (stereo not drawn)
TGI [1]: 6.27 µM
TGI [3]: > 39.8 µM
TGI [4]: 14.7 µM
TGI [5]: 41.1 µM
TGI [6]: > 73.3 µM
TGI [7]: 1.34 µM
TGI [8]: > 79.8 µM
TGI [10]: > 92.7 µM
TGI [11]: > 69.3 µM

Cc1cc(C)nc(SCC(=O)OC2CC(C)CCC2C(C)C)n1 (stereo not drawn)
TGI [12]: 47.2 µM
TGI [1]: 63.4 µM
TGI [2]: 48.6 µM
TGI [3]: 31 µM
TGI [4]: 37.5 µM
TGI [5]: 47.9 µM
TGI [6]: > 100 µM
TGI [7]: 29 µM
TGI [8]: > 100 µM
TGI [9]: 65.8 µM
TGI [11]: 33.7 µM

CN1C[C@H]2[C@@H](C1=O)[C@H](c1ccccc1)ON2C
TGI [1]: > 100 µM
TGI [2]: > 100 µM
TGI [3]: > 100 µM
TGI [4]: > 100 µM
TGI [5]: > 100 µM
TGI [6]: > 100 µM
TGI [7]: > 100 µM
TGI [8]: > 100 µM
TGI [9]: > 100 µM
TGI [10]: > 100 µM
TGI [11]: > 100 µM

O=C(Nc1c(C(=O)NC2CCCCC2)[nH]c(=O)[nH]c1=O)c1ccc(Cl)cc1
TGI [1]: > 100 µM
TGI [2]: > 100 µM
TGI [3]: > 100 µM
TGI [4]: > 100 µM
TGI [5]: > 100 µM
TGI [6]: > 100 µM
TGI [7]: > 100 µM
TGI [8]: > 100 µM
TGI [9]: 85.1 µM
TGI [10]: > 100 µM
TGI [11]: > 100 µM

CC(=O)OCC1=C(C(=O)O)C(c2ccc3c(c2)OCO3)c2cc3c(cc2O1)OCO3 (stereo not drawn)
TGI [1]: > 100 µM
TGI [2]: > 100 µM
TGI [3]: > 100 µM
TGI [4]: > 100 µM
TGI [6]: > 100 µM
TGI [7]: > 100 µM
TGI [8]: > 100 µM
TGI [9]: > 100 µM
TGI [11]: > 100 µM

Cc1cc(C)c2c(c1)C1=NCCN1C2(O)c1ccc(Cl)cc1 (stereo not drawn)
TGI [12]: 28.6 µM
TGI [1]: 35.5 µM
TGI [2]: 31.5 µM
TGI [3]: 29 µM
TGI [4]: 93.4 µM
TGI [5]: 33.1 µM
TGI [6]: 30.2 µM
TGI [7]: 27.7 µM
TGI [8]: 28.5 µM
TGI [9]: 25 µM
TGI [10]: 62 µM
TGI [11]: 26.9 µM

NC1(C(=O)O)CCc2ccc(N(CCCl)CCCl)cc2C1 (stereo not drawn)
TGI [12]: > 100 µM
TGI [1]: > 100 µM
TGI [3]: > 100 µM
TGI [4]: > 100 µM
TGI [5]: > 100 µM
TGI [6]: > 100 µM
TGI [7]: > 100 µM
TGI [8]: > 100 µM
TGI [9]: > 100 µM
TGI [11]: > 100 µM

N=C(N)SCc1cc(Cl)cc(Cl)c1O
TGI [12]: 51.7 µM
TGI [1]: 53.9 µM
TGI [2]: 33.3 µM
TGI [3]: 33 µM
TGI [4]: 36.2 µM
TGI [5]: 40.3 µM
TGI [6]: 38.3 µM
TGI [7]: 31.9 µM
TGI [8]: > 100 µM
TGI [11]: 32.4 µM

CCCCCCCNC(P(=O)(O)O)P(=O)(O)O
TGI [12]: > 100 µM
TGI [1]: > 100 µM
TGI [2]: > 100 µM
TGI [3]: > 100 µM
TGI [4]: > 100 µM
TGI [5]: > 100 µM
TGI [6]: > 100 µM
TGI [7]: > 100 µM
TGI [8]: > 100 µM
TGI [9]: 43.3 µM
TGI [10]: > 100 µM
TGI [11]: > 100 µM

Cc1ccc(C2N=C(N)NC3=C2CCOc2c3ccc3ccccc23)cc1 (stereo not drawn)
TGI [12]: 41 µM
TGI [1]: > 64.6 µM
TGI [2]: 28.5 µM
TGI [3]: > 61.6 µM
GI50 [4]: 9.98 µM
TGI [4]: 38.9 µM
TGI [5]: > 77.1 µM
TGI [6]: > 70.5 µM
TGI [7]: 30.9 µM
TGI [8]: > 100 µM
TGI [9]: > 78.6 µM
TGI [10]: > 100 µM
TGI [11]: > 100 µM

O=C(Nc1ccc(Sc2ccc(N=Nc3c(O)c(S(=O)(=O)O)cc4cc(S(=O)(=O)O)ccc34)cc2)cc1)c1ccc(N=Nc2c(O)ccc3c(S(=O)(=O)O)cc(S(=O)(=O)O)cc23)cc1
TGI [12]: > 100 µM
TGI [1]: > 100 µM
TGI [2]: > 100 µM
TGI [3]: 35 µM
TGI [4]: 34.8 µM
TGI [5]: > 100 µM
TGI [6]: > 100 µM
TGI [7]: 43.3 µM
TGI [8]: > 100 µM
TGI [9]: > 100 µM
TGI [10]: 85.2 µM
TGI [11]: > 100 µM

N#CC(Nc1cccc(C(F)(F)F)c1)c1ccccc1C(F)(F)F (stereo not drawn)
TGI [12]: 34.2 µM
TGI [1]: 29.3 µM
TGI [2]: 9.09 µM
TGI [3]: 10.6 µM
TGI [4]: 14.5 µM
TGI [5]: 28.4 µM
TGI [6]: 33 µM
TGI [7]: 32.1 µM
TGI [8]: 31.4 µM
TGI [9]: 32.2 µM
TGI [10]: 25.9 µM
TGI [11]: 31.9 µM

Clc1ccc(CNc2nc(Cl)c3[nH]cnc3n2)cc1Cl
TGI [12]: 45.4 µM
TGI [1]: > 100 µM
TGI [2]: 79.9 µM
TGI [3]: 51.8 µM
TGI [5]: > 100 µM
TGI [6]: 99.2 µM
TGI [7]: 37.4 µM
TGI [8]: 85.5 µM
TGI [9]: > 100 µM
TGI [10]: 77.6 µM
TGI [11]: 60 µM

O=C(O)C1CCC(=O)N1S(=O)(=O)c1ccccc1 (stereo not drawn)
TGI [12]: > 100 µM
TGI [1]: > 100 µM
TGI [2]: > 100 µM
TGI [3]: > 100 µM
TGI [4]: > 100 µM
TGI [5]: > 100 µM
TGI [6]: > 100 µM
TGI [7]: > 100 µM
TGI [8]: > 100 µM
TGI [9]: > 100 µM
TGI [11]: > 100 µM
